Test results published in ChEMBL document CHEMBL1201862, “PubChem BioAssay data set” (2004).
Active and inactive are the calls of the source.

How the values were obtained:
[1] = A2780 cell killing – plate reader, dry powder samples, cytotoxicity control, dose response (AID 743046); type: functional, cell-based
[2] = IGROV1 cell killing – plate reader, dry powder samples, PAX8 inhibitor project, dose response (AID 743043); type: functional, cell-based; conditions: IGROV-1
Paired box protein Pax-8 = Paired box protein Pax-8 (Homo sapiens, UniProt Q06710); assay: PAX8 transcriptional activity inhibition in RMG-I – RMG-I cells, luciferase, cherry-pick, dose response (AID 687027); type: functional, cell-based;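 further: luciferase reporter driven by Pax8 target thyroperoxidase promoter measured by SteadyGlo luminescence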
Chain of Paired box protein Pax-8 (Q06710 whole entry): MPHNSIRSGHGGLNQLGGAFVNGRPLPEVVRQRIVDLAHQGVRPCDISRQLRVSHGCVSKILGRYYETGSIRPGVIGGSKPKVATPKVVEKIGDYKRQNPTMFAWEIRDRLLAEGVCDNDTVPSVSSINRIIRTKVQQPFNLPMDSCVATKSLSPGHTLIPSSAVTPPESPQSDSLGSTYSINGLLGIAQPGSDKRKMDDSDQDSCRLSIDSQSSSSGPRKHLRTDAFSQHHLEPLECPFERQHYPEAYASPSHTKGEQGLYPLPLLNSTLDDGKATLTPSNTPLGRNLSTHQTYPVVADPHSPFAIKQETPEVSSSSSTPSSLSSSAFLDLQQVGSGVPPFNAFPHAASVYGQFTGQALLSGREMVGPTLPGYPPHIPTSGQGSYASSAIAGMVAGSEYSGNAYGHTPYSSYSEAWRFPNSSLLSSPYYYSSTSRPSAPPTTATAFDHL

[3] = OVCAR-3 cell viability loss – plate reader, dry powder samples, PAX8 inhibitor project, dose response (AID 743044); type: functional, cell-based
Beta-galactosidase = Beta-galactosidase (Escherichia coli, UniProt Q8VNN2); assay: Dose response counterscreen for EBI2 assay utilizing the enzyme, b-galactosidase.; type: functional
Chain of Beta-galactosidase (Q8VNN2 whole entry): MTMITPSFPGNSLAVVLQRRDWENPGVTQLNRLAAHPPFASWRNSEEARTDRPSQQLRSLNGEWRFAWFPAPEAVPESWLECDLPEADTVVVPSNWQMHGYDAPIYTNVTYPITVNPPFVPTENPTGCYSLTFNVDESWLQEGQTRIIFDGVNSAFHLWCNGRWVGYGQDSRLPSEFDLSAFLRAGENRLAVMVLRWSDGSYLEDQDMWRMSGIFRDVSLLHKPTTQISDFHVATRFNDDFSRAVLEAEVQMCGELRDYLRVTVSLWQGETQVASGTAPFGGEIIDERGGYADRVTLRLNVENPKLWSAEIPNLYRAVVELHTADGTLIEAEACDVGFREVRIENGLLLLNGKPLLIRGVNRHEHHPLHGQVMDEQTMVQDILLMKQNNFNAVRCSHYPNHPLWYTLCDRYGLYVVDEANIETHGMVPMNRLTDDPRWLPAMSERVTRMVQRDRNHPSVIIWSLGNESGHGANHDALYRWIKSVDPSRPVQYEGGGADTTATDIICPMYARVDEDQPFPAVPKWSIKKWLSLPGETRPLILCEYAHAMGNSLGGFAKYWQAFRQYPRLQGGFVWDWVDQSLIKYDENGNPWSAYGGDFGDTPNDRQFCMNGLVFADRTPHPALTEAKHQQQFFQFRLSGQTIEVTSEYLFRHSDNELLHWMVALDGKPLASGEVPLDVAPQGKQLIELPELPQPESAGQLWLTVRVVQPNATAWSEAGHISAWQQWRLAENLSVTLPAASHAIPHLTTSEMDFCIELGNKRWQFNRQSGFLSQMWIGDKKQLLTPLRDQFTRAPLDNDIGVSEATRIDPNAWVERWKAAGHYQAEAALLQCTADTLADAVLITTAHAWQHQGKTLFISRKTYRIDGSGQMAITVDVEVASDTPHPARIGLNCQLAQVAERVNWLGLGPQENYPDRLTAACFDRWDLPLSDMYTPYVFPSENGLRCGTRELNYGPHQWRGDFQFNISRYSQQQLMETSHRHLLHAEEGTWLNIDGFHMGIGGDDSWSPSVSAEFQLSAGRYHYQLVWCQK

[4] = Counterscreen for inhibitors of Trypanosoma brucei methionyl tRNA synthetase (MetRS): Luminescence-based cell-based high throughput dose response assay to identify compounds that are cytotoxic to Jurkat human T lymphocyte cells.; type: functional
[5] = target: T1, Methionyl-tRNA synthetase, putative (Trypanosoma brucei brucei, UniProt Q38C91); type: functional, Trypanosoma brucei brucei strain 927/4 GUTat10.1
T1 sequence (Q38C91 whole entry): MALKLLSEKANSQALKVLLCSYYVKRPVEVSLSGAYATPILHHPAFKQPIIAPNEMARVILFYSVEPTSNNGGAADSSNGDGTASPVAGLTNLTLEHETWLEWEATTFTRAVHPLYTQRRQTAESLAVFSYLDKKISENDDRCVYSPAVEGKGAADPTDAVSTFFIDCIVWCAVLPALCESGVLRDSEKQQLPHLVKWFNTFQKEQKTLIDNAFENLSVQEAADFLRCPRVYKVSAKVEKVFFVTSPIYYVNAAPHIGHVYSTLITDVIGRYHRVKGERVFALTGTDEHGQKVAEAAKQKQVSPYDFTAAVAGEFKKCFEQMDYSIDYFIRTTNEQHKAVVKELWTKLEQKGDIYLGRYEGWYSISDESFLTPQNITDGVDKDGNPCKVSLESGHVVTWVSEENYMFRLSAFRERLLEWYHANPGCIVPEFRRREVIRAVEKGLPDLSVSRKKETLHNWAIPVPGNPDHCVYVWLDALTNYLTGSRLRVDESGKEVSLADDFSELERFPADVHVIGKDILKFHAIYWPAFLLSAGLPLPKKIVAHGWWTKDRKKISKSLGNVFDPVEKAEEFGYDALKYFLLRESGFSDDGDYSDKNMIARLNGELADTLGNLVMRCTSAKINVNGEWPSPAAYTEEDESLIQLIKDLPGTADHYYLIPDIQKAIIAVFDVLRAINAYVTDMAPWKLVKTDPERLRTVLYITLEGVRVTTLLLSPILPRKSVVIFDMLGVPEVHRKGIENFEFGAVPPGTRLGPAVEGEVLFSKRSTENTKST

[6] = target: T1, Methionyl-tRNA synthetase, putative; type: functional, Trypanosoma brucei brucei strain 927/4 GUTat10.1; remark: listed apart in the source
[7] = target: T2, Histone-lysine N-methyltransferase NSD2 (Homo sapiens, UniProt O96028); type: biochemical
T2 sequence (O96028 whole entry): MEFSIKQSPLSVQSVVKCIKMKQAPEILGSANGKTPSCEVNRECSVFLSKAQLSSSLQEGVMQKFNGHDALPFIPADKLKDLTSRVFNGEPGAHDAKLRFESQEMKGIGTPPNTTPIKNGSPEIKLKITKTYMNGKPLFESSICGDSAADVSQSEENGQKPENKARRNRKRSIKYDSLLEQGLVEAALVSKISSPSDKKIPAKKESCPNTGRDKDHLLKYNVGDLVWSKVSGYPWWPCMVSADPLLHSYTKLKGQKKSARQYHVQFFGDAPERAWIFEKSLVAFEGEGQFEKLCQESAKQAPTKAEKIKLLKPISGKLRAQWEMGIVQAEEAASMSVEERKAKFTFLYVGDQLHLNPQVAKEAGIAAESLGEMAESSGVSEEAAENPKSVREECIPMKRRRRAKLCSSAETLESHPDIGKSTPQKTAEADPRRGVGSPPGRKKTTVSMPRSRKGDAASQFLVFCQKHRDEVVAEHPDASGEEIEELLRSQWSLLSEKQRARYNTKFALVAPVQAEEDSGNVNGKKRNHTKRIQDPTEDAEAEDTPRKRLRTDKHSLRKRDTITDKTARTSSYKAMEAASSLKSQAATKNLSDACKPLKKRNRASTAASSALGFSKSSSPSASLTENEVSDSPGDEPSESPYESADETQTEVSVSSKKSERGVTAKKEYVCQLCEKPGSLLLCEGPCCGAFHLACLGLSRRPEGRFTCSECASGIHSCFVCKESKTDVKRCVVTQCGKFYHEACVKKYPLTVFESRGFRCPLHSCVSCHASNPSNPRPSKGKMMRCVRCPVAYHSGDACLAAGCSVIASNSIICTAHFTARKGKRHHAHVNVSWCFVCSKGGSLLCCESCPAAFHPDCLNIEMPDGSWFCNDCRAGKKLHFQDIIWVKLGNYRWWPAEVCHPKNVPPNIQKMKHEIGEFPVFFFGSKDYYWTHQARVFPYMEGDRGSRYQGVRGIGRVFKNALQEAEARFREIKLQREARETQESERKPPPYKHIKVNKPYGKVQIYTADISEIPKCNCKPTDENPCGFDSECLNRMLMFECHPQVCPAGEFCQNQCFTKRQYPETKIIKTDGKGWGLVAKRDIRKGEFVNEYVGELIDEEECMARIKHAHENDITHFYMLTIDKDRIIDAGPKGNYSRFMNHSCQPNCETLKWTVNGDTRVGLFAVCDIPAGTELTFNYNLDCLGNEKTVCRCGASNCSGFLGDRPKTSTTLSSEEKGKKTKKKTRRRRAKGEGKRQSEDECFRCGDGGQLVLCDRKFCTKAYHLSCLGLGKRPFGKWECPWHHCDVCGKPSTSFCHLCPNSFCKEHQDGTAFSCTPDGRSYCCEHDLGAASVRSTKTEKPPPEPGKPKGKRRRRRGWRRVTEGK

cells [8] = type: functional, cell-based
[9] = target: T3, Trace amine-associated receptor 1 (Homo sapiens, UniProt Q96RJ0); assay: Fluorescence-based cell-based high throughput dose response assay to identify agonists of the human trace amine associated receptor 1 (TAAR1).; type: functional
T3 sequence (Q96RJ0 whole entry): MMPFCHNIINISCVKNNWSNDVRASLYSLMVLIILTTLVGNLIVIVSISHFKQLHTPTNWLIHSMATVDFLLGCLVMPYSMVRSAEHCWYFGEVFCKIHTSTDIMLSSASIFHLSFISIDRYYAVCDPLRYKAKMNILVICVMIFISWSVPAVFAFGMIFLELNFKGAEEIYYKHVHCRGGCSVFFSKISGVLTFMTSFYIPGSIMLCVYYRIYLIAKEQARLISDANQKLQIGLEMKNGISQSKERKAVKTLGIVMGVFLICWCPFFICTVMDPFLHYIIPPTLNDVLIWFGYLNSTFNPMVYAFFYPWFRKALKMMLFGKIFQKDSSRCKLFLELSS

cells [10] = type: functional, cell-based; remark: listed apart in the source
[11] = target: T3, Trace amine-associated receptor 1; assay: Counterscreen for agonists of the human trace amine associated receptor 1 (hTAAR1): Fluorescence-based cell-based high throughput dose response assay to identify hTAAR1 agonist that also desensitize TAAR1 receptor response.; type: functional
[12] = system: Streptococcus sp. 'group A'; assay: Streptococcus pyogenes SK(-)GAS viability under kanamycin – luminescence, BacTiterGlo, confirmation, counter-screen for streptokinase expression inhibitor project, dose response (AID 1900); type: functional, organism-based
[13] = HGIII-sPLA2 enzyme inhibition potency – biochemical, QFRET, IC50, dose response (AID 743457);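 further: green fluorescence rise as the enzyme cleaves BODIPY PC-A2 in liposomes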
Streptococcus = assay: GAS UMAA2166 growth inhibition – luminescence, BacTiterGlo, counter-screen for streptokinase expression inhibitor project, dose response (AID 1915); type: functional, organism-based;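 further: potency for reduction of bacterial viability or growth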
Vero = assay: cells; type: functional; conditions: Chlorocebus sabaeus
[14] = Trypanosoma cruzi growth suppression in host cells – NIH3T3 host cells, beta-gal luminescence, confirmation (AID 2044); type: functional, cell-based;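 further: intracellular parasites grown in NIH/3T3 mouse fibroblasts as host cells; luminescent beta-galactosidase reporter signal from transgenic T. cruzi replicating inside host cells; inhibitors lower the luminescence signal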
[15] = target: T4, Sentrin-specific protease 8 (Homo sapiens, UniProt Q96LD8); type: functional
T4 sequence (Q96LD8 whole entry): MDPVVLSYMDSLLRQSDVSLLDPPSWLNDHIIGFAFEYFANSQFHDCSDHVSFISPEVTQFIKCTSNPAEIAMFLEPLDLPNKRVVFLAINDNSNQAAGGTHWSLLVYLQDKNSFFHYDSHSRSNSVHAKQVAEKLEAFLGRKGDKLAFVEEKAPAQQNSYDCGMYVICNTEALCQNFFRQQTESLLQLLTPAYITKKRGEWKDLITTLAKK

[16] = target: T4, Sentrin-specific protease 8; type: functional; remark: listed apart in the source
[17] = target: T5, Corticotropin-releasing factor receptor 2/Corticotropin-releasing factor-binding protein (Homo sapiens, UniProt P24387+Q13324); assay: Dose Response confirmation of uHTS hits for small molecule antagonists of the CRF-binding protein and CRF-R2 receptor complex.; type: functional; conditions: read-out: IC50_Mean
T5 sequence (Q13324 whole entry): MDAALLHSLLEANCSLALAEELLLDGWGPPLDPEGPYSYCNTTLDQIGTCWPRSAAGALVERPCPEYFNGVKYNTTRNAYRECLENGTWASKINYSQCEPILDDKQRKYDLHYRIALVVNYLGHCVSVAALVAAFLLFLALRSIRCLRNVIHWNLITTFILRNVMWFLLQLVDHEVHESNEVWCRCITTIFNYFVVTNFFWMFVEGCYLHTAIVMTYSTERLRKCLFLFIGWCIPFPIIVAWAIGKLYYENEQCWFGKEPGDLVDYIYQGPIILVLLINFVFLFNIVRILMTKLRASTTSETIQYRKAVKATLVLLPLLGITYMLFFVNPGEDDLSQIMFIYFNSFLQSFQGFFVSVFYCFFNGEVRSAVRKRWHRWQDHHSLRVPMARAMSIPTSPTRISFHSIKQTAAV
T5 sequence (P24387 whole entry): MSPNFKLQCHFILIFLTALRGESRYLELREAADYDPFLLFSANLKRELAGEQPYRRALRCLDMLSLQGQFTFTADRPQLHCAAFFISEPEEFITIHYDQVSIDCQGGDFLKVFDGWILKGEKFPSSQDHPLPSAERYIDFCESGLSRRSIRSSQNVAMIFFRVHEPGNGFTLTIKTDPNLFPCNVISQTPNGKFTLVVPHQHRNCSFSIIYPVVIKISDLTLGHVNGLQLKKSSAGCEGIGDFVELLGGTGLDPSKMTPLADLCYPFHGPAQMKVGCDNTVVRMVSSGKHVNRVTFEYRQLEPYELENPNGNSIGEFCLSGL

[18] = target: FAD-linked sulfhydryl oxidase ALR (Homo sapiens, UniProt P55789); assay: ALR-catalysed DTT oxidation blockers – biochemical, H2O2 detection, luminescence, cherry-pick, dose response (AID 493248)
Chain of FAD-linked sulfhydryl oxidase ALR (P55789 whole entry): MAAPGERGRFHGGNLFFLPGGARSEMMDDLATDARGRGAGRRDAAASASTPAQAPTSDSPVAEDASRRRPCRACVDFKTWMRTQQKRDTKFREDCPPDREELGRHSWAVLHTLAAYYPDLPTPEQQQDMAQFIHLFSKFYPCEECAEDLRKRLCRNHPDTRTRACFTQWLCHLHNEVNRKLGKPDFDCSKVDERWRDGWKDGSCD

[19] = target: T5, Corticotropin-releasing factor receptor 2/Corticotropin-releasing factor-binding protein; assay: activators of CRF receptor 2 with binding protein – uHTS hits, confirmation (AID 602473); type: functional; conditions: read-out: EC50_Mean
[20] = blockers of CRF-binding protein–CRF-R2 complex – cell-based, uHTS hits, 384-well, dose response (AID 651639); type: functional, Homo sapiens; conditions: read-out: IC50_Mean
[21] = viability of uninfected HEp-2 cells – cell-based, HTS, cytotoxicity control for RSV inhibitor project, dose response (AID 2410); type: functional; conditions: human respiratory syncytial virus

COc1ccccc1S(=O)(=O)N(C)C[C@H]1Oc2cc(C#CCC3CCCC3)ccc2S(=O)(=O)N([C@@H](C)CO)C[C@@H]1C
AC50 [1]: 52.2 µM (active)
AC50 [2]: 62.2 µM (active)
AC50 (Paired box protein Pax-8): 7.59 µM (active)
AC50 [3]: 17.1 µM (active)

Cc1ccc(CNC(=O)C2CCN(S(=O)(=O)c3ccc4c(c3)OCCCO4)CC2)cc1
IC50 (Beta-galactosidase): > 80 µM (inactive)

Cc1cccc(OCCCC(=O)Nc2ccc(Br)cc2)c1
IC50 [4]: 83.3 µM (inactive)
IC50 [5]: 32 µM (inactive)
IC50 [6]: 119 µM (inactive)

CN1CCN(c2ncnc3c2cnn3C)CC1
AC50 [7]: 13.3 µM (active)

Cc1ccc(Nc2ccc(C(=O)NCCc3ccccc3)cn2)cc1
IC50 (Beta-galactosidase): > 80 µM (inactive)

CN(CCc1ccccc1)C(=O)CC1C(=O)NCCN1Cc1ccccn1 (stereo not drawn)
EC50 (cells [8]): > 29.9 µM (inactive)
EC50 [9]: 3.05 µM (active)
IC50 (cells [10]): > 29.9 µM (inactive)
IC50 [11]: 9.93 µM (active)

O=C(c1ccc(Cl)cc1)N1CCN(S(=O)(=O)/C=C/c2ccccc2)CC1
IC50 (Beta-galactosidase): > 80 µM (inactive)

COc1cc(C(=O)NNC(=S)NC(=O)c2ccc(Cl)cc2)cc(OC)c1OC
EC50 [12]: 0.822 µM (active)
IC50 [13]: > 122 µM (inactive)
EC50 (Streptococcus): 2.17 µM (active)
CC50 (Vero): > 25 µM (active)
EC50 [14]: 0.756 µM (active)

CC(NC(=O)COC(=O)c1ccc([N+](=O)[O-])s1)c1ccccc1 (stereo not drawn)
IC50 [15]: 17.1 µM (active)
IC50 [16]: 6.55 µM (active)

Cc1nn(-c2ccccc2)c(C)c1/C=N/n1c(S)nnc1-c1ccccc1Br
IC50 [17]: 3.92 µM (active)
AC50 [18]: 3.44 µM (active)
EC50 [19]: > 53 µM (inactive)
IC50 [20]: 10.9 µM (active)
CC50 [21]: 23.2 µM (active)

CC(C)[C@H](NS(=O)(=O)c1ccc(F)cc1F)C(=O)N1CCC[C@H]1C(=O)NCCc1ccccc1Cl
EC50 (cells [8]): > 29.9 µM (inactive)
EC50 [9]: 2.89 µM (active)
IC50 (cells [10]): > 29.9 µM (inactive)
IC50 [11]: 4.65 µM (active)

CCOC(=O)N[C@@H](Cc1cccnc1)C(=O)N1CCC[C@H]1C(=O)NCCc1ccccc1Cl
EC50 (cells [8]): > 29.9 µM (inactive)
EC50 [9]: 3.16 µM (active)
IC50 (cells [10]): > 29.9 µM (inactive)
IC50 [11]: 8.93 µM (active)

CCN(CC)C1CCN(c2nc3nonc3nc2NCCOC)C1 (stereo not drawn)
AC50 [7]: 14.4 µM (active)

COc1ccc(-c2nnc(SC)nc2-c2ccc(OC)c([N+](=O)[O-])c2)cc1[N+](=O)[O-]
IC50 [15]: 46.9 µM (active)
IC50 [16]: > 100 µM (inactive)
